13 compounds from patent US12459908B2, “Alpha, beta unsaturated methacrylic esters with anti-inflammatory properties” (Sitryx Therapeutics Limited, priority 2020, dated 2025) can be followed below.

Structures can show the parent of a compound that is named as a salt. Bounds are passed on as bounds.

In data set [1] the test system is IL-6. Briefly: THP-1 AlphaLISA IL-6 cytokine inhibition assay (differentiated THP-1 cells). It is filed as cell-based. Particulars: Homo sapiens, LPS 24 hr then Nigericin 1 hour, class symbols. The method, then:
(§1) The cytokine inhibition profiles of compounds of formula (I) were determined in a differentiated THP-1 cell assay. All assays were performed in RPMI-1640 growth medium (Gibco), supplemented with 10% fetal bovine serum (FBS; Gibco), 1% penicillin-streptomycin and 1% sodium pyruvate unless specified otherwise. The IL-1p cytokine inhibition assay was run in a background of differentiated THP-1 cells as described below. All reagents described were from Sigma-Aldrich unless specified otherwise. Compounds were prepared as 10 mM DMSO stocks.
(§2) THP-1 cells were expanded as a suspension up to 80% confluence in appropriate growth medium. Cells were harvested, suspended, and treated with an appropriate concentration of phorbol 12-myristate 13-acetate (PMA) over a 72 hr period (37° C./5% CO2).
(§3) Following 72 hrs of THP-1 cell incubation, cellular medium was removed and replaced with fresh growth media containing 1% of FBS. Working concentrations of compounds were prepared separately in 10% FBS treated growth medium and pre-incubated with the cells for 30 minutes (37° C./5% CO2). Following the 30 minute compound pre-incubation, THP-1s were treated with an appropriate concentration of LPS and the cells were subsequently incubated for a 24 hr period (37° C./5% CO2). An appropriate final concentration of Nigericin was then dispensed into the THP-1 plates and incubated for 1 hour (37° C./5% CO2) before THP-1 supernatants were harvested and collected in separate polypropylene 96-well holding plates.
(§4) Reagents from an IL-1β and IL-6 commercial kit (Perkin Elmer) were prepared and run according to the manufacturer's instructions. Subsequently, fluorescence signal detection in a microplate reader was measured (EnVision® Multilabel Reader, Perkin Elmer).
(§5) Percentage inhibition was calculated per cytokine by normalising the sample data to the high and low controls used within each plate (+/−LPS respectively). Percentage inhibition was then plotted against compound concentration and the 50% inhibitory concentration (IC50) was determined from the resultant concentration-response curve.
(In general: Bead proximity is the source of the signal in Alpha formats.)

Data set [2] has as its system IL-1β. Briefly: THP-1 AlphaLISA IL-1β cytokine inhibition assay (differentiated THP-1 cells). The data set is classed as cell-based. The settings on record: Homo sapiens, LPS 24 hr then Nigericin 1 hour, class symbols. The protocol:
Biological Example 1—THP-1 AlphaLISA IL-1β
Measuring Inhibitory Effects on IL-1, Cytokine Output from THP-1s
as §1, §2, §3, §4, §5

Data set [3] can be described thus: Hepatocyte stability assay, human cryopreserved hepatocytes. The data set is classed as in vitro ADME. Particulars: cryopreserved hepatocytes; Human hepatocytes, 10 μM, 60 min; class symbols; read-out: T½. The text has this:
(§6) Biological Example 3—Hepatocyte Stability Assay
(§7) Defrosted cryo-preserved hepatocytes (viability >70%) were used to determine the metabolic stability of a compound via calculation of intrinsic clearance (CIint; a measure of the removal of a compound from the liver in the absence of blood flow and cell binding). Clearance data are particularly important for in vitro work as they can be used in combination with in vivo data to predict the half-life and oral bioavailability of a drug.
(§8) The metabolic stability in hepatocytes assay involves a time-dependent reaction using both positive and negative controls. The cells were pre-incubated at 37° C. and spiked with test compound (and positive control); samples taken at pre-determined time intervals were analysed to monitor the change in concentration of the initial drug compound over 60 minutes. A buffer incubation reaction (with no hepatocytes present) acted as a negative control and two cocktail solutions, containing compounds with known high and low clearance values (verapamil/7-hydroxycoumarin and propranolol/diltiazem), acted as positive controls. • 1. The assay was run with a cell concentration of 0.5×10^6 cells/mL in Leibovitz buffer. • 2. All compounds and controls were run in duplicate. • 3. Compound concentration was 10 μM. • 4. All compounds and controls were incubated with both cells and buffer to show turnover was due to hepatic metabolism. • 5. All wells on the incubation plate had 326.7 μL of either cells or buffer added. • 6. Prior to assay, cell and buffer-only incubation plates were preincubated for 10 mins at 37° C. • 7. The assay was initiated by adding compounds, 3.3 μL of 1 mM in 10% DMSO-90% Buffer; final DMSO concentration is 0.1%. • 8. Samples were taken at regular timepoints (0, 5, 10, 20, 40, 60 min) until 60 mins. • 9. Sample volume was 40 μL and was added to 160 μL of crash solvent (acetonitrile with internal standard) and stored on ice. • 10. At the end of the assay, the crash plates were centrifuged at 3500 rpm for 20 mins at 4° C. • 11. 80 μL of clear supernatant was removed and mixed with 80 μL of deionised water before being analysed by LC-MS/MS.
(§9) Raw LC-MS/MS data was exported to, and analysed in, Microsoft Excel for determination of intrinsic clearance. The percentage remaining of a compound was monitored using the peak area of the initial concentration as 100%. Intrinsic clearance and half-life values were calculated using a graph of the natural log of percentage remaining versus the time of reaction in minutes. Half-life (min) and intrinsic clearance (CIint in μL min^−1 10^−6 cells) values were calculated using the gradient of the graph (the elimination rate constant, k) and Equations 1 and 2.

Data set [4] deals with cryo-preserved hepatocytes. In words: Hepatocyte stability assay, mouse cryopreserved hepatocytes. It is filed as in vitro ADME. Particulars: Mouse hepatocytes, 10 μM, 60 min; class symbols.
Source text: as §6, §7, §8, §9

Experiment in data set [5]: as above
The data set is classed as in vitro ADME. Particulars: cryopreserved hepatocytes; Mouse hepatocytes, 10 μM, 60 min; class symbols; read-out: T½.
Source text: as §6, §7, §8, §9

Data set [6] deals with NRF2. In words: NRF2 activation assay (DiscoverX PathHunter NRF2 translocation kit, U2OS cells). It is filed as cell-based. Particulars: Homo sapiens, 6 hours; for Emax: normalised to DMF high control. The method, then: Biological Example 2—NRF2 Activation Assay
Measuring Compound Activation Effects on the Anti-Inflammatory Transcription Factor NRF2 in DiscoverX PathHunter NRF2 Translocation Kit
Potency and efficacy of compounds of formula (I) against the target of interest to activate NRF2 (nuclear factor erythroid 2-related factor 2) were determined using the PathHunter NRF2 translocation kit (DiscoverX). The NRF2 translocation assay was run using an engineered recombinant cell line, utilising enzyme fragment complementation to determine activation of the Keap1-NRF2 protein complex and subsequent translocation of NRF2 into the nucleus. Enzyme activity was quantified using a chemiluminescent substrate consumed following the formation of a functional enzyme upon PK-tagged NRF2 translocation into the nucleus.
Additionally, a defined concentration of DMF was used as the ‘High’ control to normalise test compound activation responses to.
U2OS PathHunter eXpress cells were thawed from frozen prior to plating. Following plating, U2OS cells were incubated for 24 hrs (37° C./5% CO2) in commercial kit provided cell medium.
Following 24 hrs of incubation, plated U2OS cells were directly treated with an appropriate final concentration of compound. […]
Following compound treatment, the U2OS plates were incubated for a further 6 hours (37° C./5% CO2) before detection reagent from the PathHunter NRF2 commercial kit was prepared and added to test plates according to the manufacturer's instructions. Subsequently, the luminescence signal detection was measured in a microplate reader (PHERAstar®, BMG Labtech).
Percentage activation was calculated by normalising the sample data to the high and low controls used within each plate (+/−DMF). Percentage activation/response was then plotted against compound concentration and the 50% activation concentration ([…]) was determined from the plotted concentration-response curve.

By IC50 is commonly meant the concentration that inhibits the measured activity by half. Higher therefore signals a need for much substance. The EC50 is the concentration needed to bring the measured effect to its halfway point. A higher EC50 goes with a less potent agent. One may read the Emax as the maximal effect, on the per cent scale that the assay sets. In the case of `C=C(Cc1nc(CCCCCCCC)no1)C(=O)OCC(=O)O` [Example 1, 2-((2-((3-octyl-1,2,4-oxadiazol-5-yl)methyl)acryloyl)oxy)acetic acid], the IC50 in data set [1] and in data set [2] was less than 5 µM throughout. Further, the half-life at 10 μM in data set [3] is 5 to 59 min; in data set [5], not above 4 min. Also, the Clint result in data set [4] is recorded as “+ (+ means ≥351)”. Besides, the EC50 in data set [6] (class symbols) was less than 5 µM. This compound registered an Emax in data set [6] (class symbols) of 135 to 165%.
Turning to `C=C(Cc1nc(CCCCCCCC)no1)C(=O)OCCC(=O)O` [Example 2], in data set [2], the IC50 is less than 5 µM. Further, the half-life at 10 μM in data set [3] is 5 to 59 min. Further, in data set [4], the Clint result is on record as “+ (+ means ≥351)”. Further, the half-life at 10 μM in data set [5] is not above 4 min. In data set [6] (class symbols), this compound yielded an EC50 of less than 5 µM and an Emax of 135 to 165%.
As to `C=C(Cc1nc(C2(c3ccc(C(F)(F)F)cc3)CC2)no1)C(=O)OCC(=O)O` [Example 4, 2-((2-((3-(1-(4-(trifluoromethyl)phenyl)cyclopropyl)-1,2,4-oxadiazol-5-yl)methyl)acryloyl)oxy)acetic acid], the half-maximal inhibitory concentration (IC50) in data set [1] was 5 to 10 µM; in data set [2], less than 5 µM. Further, the half-life at 10 μM in data set [3] fell in the range of 60 to 100 min; in data set [5], 5 to 11 min. The Clint result in data set [4] is “++ (++ means 95-350)”. This compound also showed an EC50 in data set [6] (class symbols) of 5 to 10 µM. Further, the Emax in data set [6] (class symbols) is 135 to 165%.
With `C=C(Cc1nc(CCCCCCCC)no1)C(=O)O[C@H](CC(=O)O)C(F)(F)F` [Example 5, (R)-4,4,4-trifluoro-3-((2-((3-octyl-1,2,4-oxadiazol-5-yl)methyl)acryloyl)oxy)butanoic acid], the IC50 in data set [1] and in data set [2] was less than 5 µM throughout. Besides, the half-life at 10 μM was 5 to 59 min in data set [3] and not above 4 min in data set [5]. The Clint result in data set [4] is recorded as “+ (+ means ≥351)”. This compound also registered an EC50 in data set [6] (class symbols) of less than 5 µM. This compound had an Emax in data set [6] (class symbols) of 135 to 165%.
In the case of `C=C(Cc1nc(CCCCCCCC)no1)C(=O)O[C@@H](CC(=O)O)C(F)(F)F` [Example 6, (S)-4,4,4-trifluoro-3-((2-((3-octyl-1,2,4-oxadiazol-5-yl)methyl)acryloyl)oxy)butanoic acid], the IC50 in data set [1] and in data set [2] was less than 5 µM in each case. In addition, the half-life at 10 μM was 5 to 59 min in data set [3] and not above 4 min in data set [5]. The Clint result in data set [4] is listed as “+ (+ means ≥351)”. For the same compound, the EC50 in data set [6] (class symbols) was less than 5 µM. In data set [6] (class symbols), the Emax was more than 250%.
Take `C=C(Cc1nc(Cc2ccc(CCCC)cc2)no1)C(=O)O[C@H](CC(=O)O)C(F)(F)F` [Example 9, (R)-3-((2-((3-(4-butylbenzyl)-1,2,4-oxadiazol-5-yl)methyl)acryloyl)oxy)-4,4,4-trifluorobutanoic acid]: in data set [1], the IC50 is less than 5 µM. This compound returned an IC50 in data set [2] of less than 5 µM. In data set [6] (class symbols), this compound displayed an EC50 of less than 5 µM and an Emax of 101 to 134%.
For `C=C(Cc1nc(Cc2ccc(CCCCC)cc2)no1)C(=O)O[C@H](CC(=O)O)C(F)(F)F` [Example 11, (R)-4,4,4-trifluoro-3-((2-((3-(4-pentylbenzyl)-1,2,4-oxadiazol-5-yl)methyl)acryloyl)oxy)butanoic acid], the half-maximal inhibitory concentration (IC50) in data set [1] and in data set [2] was less than 5 µM in each case. In addition, in data set [6] (class symbols), the EC50 was less than 5 µM. Besides, the Emax in data set [6] (class symbols) was in the range of 101 to 134%.
As for `C=C(Cc1nc(Cc2ccc(CCCCC)cc2)no1)C(=O)O[C@@H](CC(=O)O)C(F)(F)F` [Example 12, (S)-4,4,4-trifluoro-3-((2-((3-(4-pentylbenzyl)-1,2,4-oxadiazol-5-yl)methyl)acryloyl)oxy)butanoic acid], the IC50 in data set [1] was less than 5 µM. In data set [2], this compound gave an IC50 of less than 5 µM. Further, in data set [6] (class symbols), the EC50 is less than 5 µM and the Emax was in the range of 166 to 250%.
In the case of `C=C(Cc1nc(Cc2ccc(CCCC)cc2)no1)C(=O)OCCC(=O)O` [Example 15, 3-((2-((3-(4-butylbenzyl)-1,2,4-oxadiazol-5-yl)methyl)acryloyl)oxy)propanoic acid], the IC50 in data set [1] and in data set [2] was less than 5 µM each time. In addition, the values for the half-life at 10 μM in data set [3] and in data set [5] were 5 to 59 min and not above 4 min, respectively. Also, the Clint entry in data set [4] is reported as “+ (+ means ≥351)”.
As to `C=C(Cc1nc(CCCCCCCC)no1)C(=O)OC(C(F)(F)F)C(C)(C)C(=O)O` (stereo not shown) [Example 17, 4,4,4-trifluoro-2,2-dimethyl-3-((2-((3-octyl-1,2,4-oxadiazol-5-yl)methyl)acryloyl)oxy)butanoic acid], the IC50 in data set [1] and in data set [2] was less than 5 µM each time. For the same compound, the half-life at 10 μM in data set [3] is 5 to 59 min; in data set [5] it was not above 4 min. Moreover, the Clint entry in data set [4] was “+ (+ means ≥351)”.
Take `C=C(Cc1nc(Cc2ccc(OC(F)(F)F)cc2)no1)C(=O)OCC(=O)O` [Example 20, 2-((2-((3-(4-(trifluoromethoxy)benzyl)-1,2,4-oxadiazol-5-yl)methyl)acryloyl)oxy)acetic acid]: the IC50 in data set [1] is less than 5 µM; in data set [2], 5 to 10 µM. In addition, the figures for the half-life at 10 μM in data set [3] and in data set [5] were more than 100 min and 5 to 11 min, respectively. For the same compound, in data set [4], the Clint result is on record as “++ (++ means 95-350)”.
In data set [1], `C=C(Cc1nc(CCCCC)no1)C(=O)OCC(=O)O` [Example 21, 2-((2-((3-pentyl-1,2,4-oxadiazol-5-yl)methyl)acryloyl)oxy)acetic acid] registered an IC50 of 11 to 20 µM. In addition, the half-maximal inhibitory concentration (IC50) in data set [2] is 21 to 24 µM. In data set [6] (class symbols), the EC50 fell in the range of 11 to 21 µM and the Emax fell in the range of 166 to 250%.
Turning to `COC(=O)/C=C/C(=O)OC` [dimethyl fumarate, reference compound], in data set [6] (numeric values), the Emax was found to be 100% and a half-maximal response (EC50) required 6.1 µM.
